Assay results reported in ChEMBL document CHEMBL1150175, “Studies on the activities of tannins and related compounds, X. Effects of caffeetannins and related compounds on arachidonate metabolism in human polymorphonuclear leukocytes” (J Nat Prod, 1987).
The source made the active and inactive calls. The calls are words filed in the database; no cut-off is given here.

Columns and labels:
[1] = Formation of PGE2 in A-23187-stimulated human polymorphonuclear leukocytes at 1000 uM relative to control; assay type: functional
[2] = Formation of PGE2 in A-23187-stimulated human polymorphonuclear leukocytes at 100 uM relative to control; assay type: functional
[3] = Formation of PGE2 in A-23187-stimulated human polymorphonuclear leukocytes at 10 uM relative to control; assay type: functional
[4] = Formation of 15HETE in A-23187-stimulated human polymorphonuclear leukocytes at 1000 uM relative to control; assay type: functional
[5] = Inhibition of A23187-induced LTB4 formation in human polymorphonuclear leukocytes; assay type: functional, cell-based
[6] = Inhibition of A23187-induced 12-hydroxy-5,8,10-heptadecatrienoic acid formation in human polymorphonuclear leukocytes; assay type: functional, cell-based
[7] = Inhibition of A23187-induced 5HETE formation in human polymorphonuclear leukocytes; assay type: functional, cell-based
Homo sapiens [8] = species on record: Homo sapiens; test: Inhibition of A23187-induced LTB4 formation in human polymorphonuclear leukocytes at 100 to 1000 uM; assay type: functional, cell-based
Homo sapiens [9] = species on record: Homo sapiens; test: Inhibition of A23187-induced 5HETE formation in human polymorphonuclear leukocytes at 100 to 1000 uM; assay type: functional, cell-based
Homo sapiens [10] = species on record: Homo sapiens; test: Enhancement of PGE2 formation in A-23187-stimulated human polymorphonuclear leukocytes at 100 uM; assay type: functional
[11] = Cytotoxicity against human polymorphonuclear leukocytes assessed as occurrence of cell suspension or lactate dehydrogenase release at 1 to 1000 uM
[12] = Formation of 15HETE in A-23187-stimulated human polymorphonuclear leukocytes at 100 uM relative to control; assay type: functional
Homo sapiens [13] = species on record: Homo sapiens; test: Inhibition of A23187-induced PGE2 formation in human polymorphonuclear leukocytes at 1 to 100 uM; assay type: functional, cell-based
Homo sapiens [14] = species on record: Homo sapiens; test: Inhibition of A23187-induced 12-hydroxy-5,8,10-heptadecatrienoic acid formation in human polymorphonuclear leukocytes at 1 to 100 uM; assay type: functional, cell-based
Homo sapiens [15] = species on record: Homo sapiens; test: Enhancement of PGE2 formation in A-23187-stimulated human polymorphonuclear leukocytes at 100 to 1000 uM; assay type: functional
Homo sapiens [16] = species on record: Homo sapiens; test: Inhibition of A23187-induced 12-hydroxy-5,8,10-heptadecatrienoic acid formation in human polymorphonuclear leukocytes at 1000 uM; assay type: functional, cell-based
Homo sapiens [17] = species on record: Homo sapiens; test: Enhancement of PGE2 formation in A-23187-stimulated human polymorphonuclear leukocytes at 10 to 100 uM; assay type: functional
Homo sapiens [18] = species on record: Homo sapiens; test: Enhancement of 15HETE formation in A-23187-stimulated human polymorphonuclear leukocytes at 10 to 100 uM; assay type: functional
Homo sapiens [19] = species on record: Homo sapiens; test: Inhibition of A23187-induced 5HETE formation in human polymorphonuclear leukocytes at 1 to 1000 uM; assay type: functional, cell-based
[20] = Formation of 15HETE in A-23187-stimulated human polymorphonuclear leukocytes at 10 uM relative to control; assay type: functional
[21] = Formation of 12-hydroxy-5,8,10-heptadecatrienoic acid in A-23187-stimulated human polymorphonuclear leukocytes at 1000 uM relative to control; assay type: functional
[22] = Inhibition of A23187-induced 15HETE formation in human polymorphonuclear leukocytes; assay type: functional, cell-based
Homo sapiens [23] = species on record: Homo sapiens; test: Inhibition of A23187-induced 12-hydroxy-5,8,10-heptadecatrienoic acid formation in human polymorphonuclear leukocytes at 100 to 1000 uM; assay type: functional, cell-based
Homo sapiens [24] = species on record: Homo sapiens; test: Inhibition of A23187-induced 15HETE formation in human polymorphonuclear leukocytes at 100 to 1000 uM; assay type: functional, cell-based

Compound | Activity [1] | Activity [4] | IC50 ([5]; Homo sapiens, read-out: IC50) | IC50 [6] | IC50 ([7]; Homo sapiens, read-out: IC50) | inhibition (Homo sapiens [8]) | inhibition (Homo sapiens [9]) | Activity (Homo sapiens [10]) | Activity [11] | Activity [12] | Activity (Homo sapiens [15]) | further results
O=C(/C=C/c1ccc(O)c(O)c1)O[C@H]1[C@H](O)C[C@](O)(C(=O)O)C[C@H]1OC(=O)/C=C/c1ccc(O)c(O)c1 | 79.5% | 56.9% | 443 µM | 740 µM | 601 µM | Active | Active | Active | Non-toxic | – | – | Activity [2]: 155%; Activity [3]: 126%
O=C(/C=C/c1ccc(O)c(O)c1)O[C@@H]1C[C@](O)(C(=O)O)C[C@@H](OC(=O)/C=C/c2ccc(O)c(O)c2)[C@H]1O | 97.5% | 50.9% | 85.9 µM | 902 µM | 666 µM | Active | Active | Active | Non-toxic | 121.1% | – | Activity [2]: 160.8%
O=C(/C=C/c1ccc(O)c(O)c1)O[C@@H]1[C@H](O)C[C@@](O)(C(=O)O)C[C@H]1OC(=O)/C=C/c1ccc(O)c(O)c1 | – | – | 92.5 µM | 80 µM | 749 µM | Active | Active | Active | Non-toxic | – | – | –
COc1ccc2c(c1)c(CC(=O)O)c(C)n2C(=O)c1ccc(Cl)cc1 | – | – | – | – | – | – | – | – | – | – | – | inhibition (Homo sapiens [13]): Active; inhibition (Homo sapiens [14]): Active
O=C(O)/C=C/c1ccc(O)c(O)c1 [CAFFEIC ACID] | – | 96.5% | 411 µM | – | 276 µM | – | – | – | Non-toxic | 153.7% | Active | IC50 [5]: Dose-dependent effect; inhibition (Homo sapiens [16]): Active; Activity (Homo sapiens [17]): Active; Activity (Homo sapiens [18]): Active; inhibition (Homo sapiens [19]): Active; Activity [20]: 136.7%
O=C(O)CC(OC(=O)/C=C/c1ccc(O)c(O)c1)C(=O)O (centres undefined) [CAFFEOYLMALIC ACID] | – | 114.8% | 548 µM | 796 µM | 918 µM | Active | Active | – | Non-toxic | 141.5% | Active | Activity [20]: 106.3%
O=C(/C=C/c1ccc(O)c(O)c1)OC(C(=O)O)C(O)C(=O)O (centres undefined) [CAFFEOYLTARTARIC ACID] | – | 55% | 433 µM | – | 873 µM | Active | Active | – | Non-toxic | – | Active | Activity [21]: 57.9%
O=C(/C=C/c1ccc(O)c(O)c1)O[C@@H]1C[C@](O)(C(=O)O)C[C@@H](O)[C@H]1O [CHLOROGENIC ACID] | – | – | – | – | – | – | – | – | Non-toxic | – | – | –
O=C(/C=C/c1ccc(O)c(O)c1)O[C@H](Cc1ccc(O)c(O)c1)C(=O)O [ROSMARINIC ACID] | 48% | – | 55.6 µM | 459 µM | 214 µM | – | – | Active | Non-toxic | – | – | Activity [3]: 143.4%; IC50 [5]: Dose-dependent effect; IC50 [7]: Dose-dependent effect; IC50 [22]: 455 µM; inhibition (Homo sapiens [23]): Active; inhibition (Homo sapiens [24]): Active
